# Results from publication PMC6736730 (Biochemistry, 2019).
# How the values were obtained:
# msAPAH [1] = target: T1, msAPAH (Marinobacter subterrani, UniProt A0A0J7JFD7); assay: Isothermal titration calorimetry; assay type: binding; settings: ITC, 25 °C; inhibitor 7 with 5% (v/v) DMSO
# msAPAH [2] = target: T1, msAPAH; assay: Hydrolysis of acetyllysine substrates; assay type: biochemical; settings: acetyllysine (Aly) and MSH2-based peptide substrates; LC-MS assay
# msAPAH [3] = target: T1, msAPAH; assay: Inhibitory activity measurements; assay type: biochemical
# msAPAH [4] = target: T1, msAPAH; assay: Steady-state kinetics of acetylpolyamine hydrolysis; assay type: biochemical; settings: 25° C, pH 7.75, triplicate; N^8-acetylspermidine value at 0 mM KCl
dissociation constant / enthalpogram fit (in words) (msAPAH [1]),IC50 (msAPAH [3]),Km (msAPAH [4]),Compound,other results
,,,CC(=O)NCCCC[C@H](N)C(N)=O [Aly-NH2],catalytic activity for hydrolysis (msAPAH [2]): No significant catalytic activity
,380 µM,,"NCCCCCCCC(=O)NO [Inhibitor 5, 8-amino-N-hydroxyoctanamide]",
,,1300 ± 600 µM,CC(=O)NCCCNCCCCNCCCN [acetylspermine],
,,44 ± 10 µM,CC(=O)NCCCCN [acetylputrescine],
,410 µM,,"NCCCCCC(=O)NO [Inhibitor 4, 6-amino-N-hydroxyhexanamide]",
micromolar dissociation constants,470 µM,,"NCCCNCCCCCC(=O)NO [Inhibitor 6, 6-[(3-aminopropyl)amino]-N-hydroxyhexanamide]",
,,800 ± 300 µM,CC(=O)NCCCCCN [acetylcadaverine],
nanomolar dissociation constant,160 µM,,"NCCCNCCCCCS [Inhibitor 3, 5-[(3-aminopropyl)amino]pentane-1-thiol]",

Compound,dissociation constant / enthalpogram fit (in words) (msAPAH [1]),IC50 (msAPAH [3]),Km (msAPAH [4]),other results
"CN(C)c1ccc(C(=O)NCCCCCCC(=O)NO)cc1 [Inhibitor 7, reference compound]",could not be fit to binding curves,,,
